Assay results from PMC6858373 (Scientific Reports, 2019).
Read-outs that look alike come from different tables or passages of the source.

Experiments:
[1] = target: full-length P. pyralis luciferase (Photinus pyralis, UniProt P08659, K549A/L550V/N119G/N50D/S548I); type: cell-based
[2] = target: T1, FGF14:Nav1.6 C-tail complex (Homo sapiens, UniProt Q92915+Q9UQD0); test: Split-luciferase complementation assay (LCA) in Clone V double stable HEK293 cells; type: cell-based
T1 construct: polymerase chain reaction (PCR) amplification of the FGF14 open reading frame (nt 1–855); C-terminal fragment of Nav1.6 (amino acids 1763–1976) fused with CD4ΔC-tail (amino acids 1–395); expressed in transfected cells
T1 sequence (Q92915 1-252 isoform Q92915-2): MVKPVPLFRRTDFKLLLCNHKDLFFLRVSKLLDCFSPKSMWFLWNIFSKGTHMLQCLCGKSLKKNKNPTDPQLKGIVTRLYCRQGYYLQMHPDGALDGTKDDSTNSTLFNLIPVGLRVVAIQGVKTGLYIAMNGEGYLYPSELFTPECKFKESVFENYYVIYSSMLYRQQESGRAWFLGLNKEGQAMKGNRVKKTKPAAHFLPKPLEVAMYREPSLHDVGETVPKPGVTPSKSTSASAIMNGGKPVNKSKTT
T1 sequence (Q9UQD0 1763-1976 limits assumed): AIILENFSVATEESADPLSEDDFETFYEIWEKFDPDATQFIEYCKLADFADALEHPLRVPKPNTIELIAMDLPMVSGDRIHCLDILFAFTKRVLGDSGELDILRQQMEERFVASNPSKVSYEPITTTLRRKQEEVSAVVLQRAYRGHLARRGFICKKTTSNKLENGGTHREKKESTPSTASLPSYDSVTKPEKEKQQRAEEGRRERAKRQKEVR

[3] = CC_NCI screening, normalized to on-plate 0.3% DMSO controls
[4] = CC_NCI screening, biological replicate Set 1, normalized to on-plate 0.3% DMSO controls
[5] = CC_NCI screening, biological replicate Set 1, normalized to on-plate 0.3% DMSO controls (n=16 per plate)
[6] = CC_NCI screening, biological replicate Set 2, normalized to on-plate 0.3% DMSO controls
[7] = CC_NCI screening, biological replicate Set 2, normalized to on-plate 0.3% DMSO controls (n=16 per plate)
[8] = average of Set 1 and Set 2, normalized to 0.3% DMSO controls
[9] = CC_NCI screening, full-length luciferase counter-screen luminescence, normalized to on-plate 0.3% DMSO controls
[10] = CC_NCI screening, full-length luciferase counter-screen, normalized to on-plate 0.3% DMSO controls
[11] = CC_NCI screening, LCA luminescence, biological replicate Set 1, normalized to on-plate 0.3% DMSO controls (n=16 per plate)
[12] = CC_NCI screening, LCA luminescence, biological replicate Set 2, normalized to on-plate 0.3% DMSO controls (n=16 per plate)
[13] = CC_NCI screening, LCA, biological replicate Set 1, normalized to on-plate 0.3% DMSO controls
[14] = CC_NCI screening, LCA, biological replicate Set 2, normalized to on-plate 0.3% DMSO controls
[15] = CC_NCI screening, average of Set 1 and Set 2, normalized to 0.3% DMSO controls

full-length P. pyralis luciferase, sequence (P08659 whole entry N50D/N119G/S548I/K549A/L550V, looked up): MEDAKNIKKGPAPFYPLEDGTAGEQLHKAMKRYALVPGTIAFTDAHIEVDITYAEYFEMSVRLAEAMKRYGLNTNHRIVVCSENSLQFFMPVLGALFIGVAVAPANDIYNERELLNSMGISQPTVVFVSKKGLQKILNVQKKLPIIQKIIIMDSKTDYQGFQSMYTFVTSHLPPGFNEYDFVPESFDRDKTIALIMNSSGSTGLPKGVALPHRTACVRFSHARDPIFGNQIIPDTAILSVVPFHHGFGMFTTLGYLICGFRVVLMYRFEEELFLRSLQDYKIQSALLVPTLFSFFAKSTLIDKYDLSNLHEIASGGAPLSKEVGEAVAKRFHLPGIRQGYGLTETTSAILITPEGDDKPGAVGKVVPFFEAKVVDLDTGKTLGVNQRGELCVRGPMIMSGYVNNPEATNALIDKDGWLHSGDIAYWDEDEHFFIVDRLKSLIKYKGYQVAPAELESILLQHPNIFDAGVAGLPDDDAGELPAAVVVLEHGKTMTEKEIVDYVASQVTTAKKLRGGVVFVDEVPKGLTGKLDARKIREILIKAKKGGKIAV

Row | SMILES | Luciferase Assay % Lum [1, 9] | Luciferase Assay Z-score [1, 10] | Split Luciferase Assay % Lum Set 1 [2, 11] | Split Luciferase Assay %Lum Set 2 [2, 12] | Split Luciferase Assay Z-score Set 1 [2, 13] | Split Luciferase Assay Z-score Set 2 [2, 14] | Split Luciferase Assay %Lum Avg [2, 15] | Toxicity Assay % Fluor (Clone V cells) | Toxicity Assay Z-score (Clone V cells) | also measured
1 | N#Cc1c(O)c2c(-c3ccc(-c4ccccc4O)cc3)csc2[nH]c1=O [Compound A-769662] | – | – | – | – | – | – | – | – | – | Luciferase Assay % Lum (full-length luciferase counter-screen) [1, 3]: 79.85%; Luciferase Assay Z-score (full-length luciferase counter-screen) [1, 3]: -2.58; Split Luciferase Assay Z-score Set 1 [2, 4]: 1.52; Split Luciferase Assay % Lum Set 1 [2, 5]: 118.82%; Split Luciferase Assay Z-score Set 2 [2, 6]: 1.01; Split Luciferase Assay %Lum Set 2 [2, 7]: 112.35%; Split Luciferase Assay %Lum Avg [2, 8]: 115.59%; Toxicity Assay % Fluor (CTB cell viability fluorescence) (Clone V cells): 107.48%; Toxicity Assay Z-score (CTB cell viability) (Clone V cells): 1.05
2 | CCOC(=O)C1=C(N)Oc2ccc(Br)cc2C1C(C#N)C(=O)OCC (stereo not drawn) [HA14-1] | 99.78% | -0.03 | 80.77% | 97.79% | -1.55 | -0.18 | 89.28% | 102.67% | 0.37 | –
3 | CCCCCCCCCCCCSc1nc2c([nH]1)c(=O)n(C)c(=O)n2C | 103.16% | 0.40 | 112.30% | 118.60% | 0.99 | 1.51 | 115.45% | 93.89% | -0.85 | –
4 | COc1cc2/c(=N/c3ccc(Br)cc3F)nc[nH]c2cc1OCC1CCN(C)CC1 [VANDETANIB] | 102.19% | 0.28 | 85.12% | 88.43% | -1.20 | -0.94 | 86.77% | 85.66% | -2.01 | –
5 | COc1ccc(OC)c2c(=S)c3ccccc3[nH]c12 [NSC 625987] | – | – | – | – | – | – | – | – | – | Luciferase Assay % Lum (full-length luciferase counter-screen) [1, 3]: 78.37%; Luciferase Assay Z-score (full-length luciferase counter-screen) [1, 3]: -2.77; Split Luciferase Assay Z-score Set 1 [2, 4]: -1.20; Split Luciferase Assay % Lum Set 1 [2, 5]: 85.12%; Split Luciferase Assay Z-score Set 2 [2, 6]: -1.20; Split Luciferase Assay %Lum Set 2 [2, 7]: 85.31%; Split Luciferase Assay %Lum Avg [2, 8]: 85.21%; Toxicity Assay % Fluor (CTB cell viability fluorescence) (Clone V cells): 109.17%; Toxicity Assay Z-score (CTB cell viability) (Clone V cells): 1.28
6 | Cc1nc(Nc2ncc(C(=O)Nc3c(C)cccc3Cl)s2)cc(N2CCN(CCO)CC2)n1 [Dasatinib] | 84.22% | -2.02 | 92.73% | 79.06% | -0.59 | -1.70 | 85.90% | 94.47% | -0.77 | –
7 | COc1cc(Nc2c(C#N)cnc3cc(OCCCN4CCN(C)CC4)c(OC)cc23)c(Cl)cc1Cl [Bosutinib] | 70.20% | -3.82 | 10.11% | 17.69% | -7.26 | -6.70 | 13.90% | 75.29% | -3.45 | –
8 | c1cc(CN2CCCNCCNCCCNCC2)ccc1CN1CCCNCCNCCCNCC1 [Plerixafor] | – | – | 112.30% | 111.31% | 0.99 | 0.92 | 111.81% | – | – | Luciferase Assay % Lum [1]: 97.43%; Luciferase Assay Z-score [1]: -0.33; Toxicity Assay % Fluor (Clone V cells; human, 16 h, 30 µM): 92.88%; Toxicity Assay Z-score (Clone V cells; human, 16 h, 30 µM): -1.00
9 | CC[C@H](CO)Nc1nc(NCc2ccccc2)c2ncn(C(C)C)c2n1 [Roscovitine] | – | – | – | – | – | – | – | – | – | Luciferase Assay % Lum [1]: 97.39%; Luciferase Assay Z-score [1]: -0.33; Split Luciferase Assay % Lum Set 1 [2]: 32.94%; Split Luciferase Assay %Lum Avg [2]: 39.88%; Split Luciferase Assay %Lum Set 2 [2]: 46.81%; Split Luciferase Assay Z-score Set 1 [2]: -5.42; Split Luciferase Assay Z-score Set 2 [2]: -4.33; Toxicity Assay % Fluor (Clone V cells; human): 99.28%; Toxicity Assay Z-score (Clone V cells; human): -0.10
10 | Cc1nc(Nc2ncc(C(=O)Nc3c(C)cccc3Cl)s2)cc(N2CCN(CCO)CC2)n1 [DASATINIB] | 82.88% | -2.19 | 38.37% | 65.54% | -4.98 | -2.80 | 51.96% | – | – | Toxicity Assay % Fluor (Clone V cells; human, 16 h, 30 µM): 83.83%; Toxicity Assay Z-score (Clone V cells; human, 16 h, 30 µM): -2.26
11 | COc1nc(N)nc2c1ncn2[C@@H]1O[C@H](CO)[C@@H](O)[C@@H]1O [Nelarabine] | – | – | 129.69% | 114.43% | 2.40 | 1.17 | 122.06% | – | – | Luciferase Assay % Lum [1]: 93.91%; Luciferase Assay Z-score [1]: -0.78; Toxicity Assay % Fluor (Clone V cells; human, 16 h, 30 µM): 90.75%; Toxicity Assay Z-score (Clone V cells; human, 16 h, 30 µM): -1.29
12 | Cc1cc(Nc2ncc3cc(-c4c(Cl)cccc4Cl)c(=O)n(C)c3n2)ccc1F [PD 180970] | 100.96% | 0.12 | 120.99% | 116.51% | 1.70 | 1.34 | 118.75% | 102.30% | 0.32 | –
